The source of these data is BindingDB's records for doi:10.1021/jm800571m (The Scripps Research Institute, 2008).

The test has as its target T1, Adenosine 5'-phosphosulfate reductase (Mycobacterium tuberculosis (strain CDC 1551 / Oshkosh), UniProt P9WIK2).
T1 sequence (P9WIK2 whole entry): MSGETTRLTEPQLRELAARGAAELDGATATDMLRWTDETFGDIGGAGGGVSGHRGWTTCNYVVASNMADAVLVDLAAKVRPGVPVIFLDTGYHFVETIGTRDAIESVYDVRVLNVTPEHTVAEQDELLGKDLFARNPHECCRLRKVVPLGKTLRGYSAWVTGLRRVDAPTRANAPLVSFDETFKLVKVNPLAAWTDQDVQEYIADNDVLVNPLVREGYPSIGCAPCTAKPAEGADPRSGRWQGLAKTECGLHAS
The experiment in a line: Determination of Dissociation Constant (Kd). To be noted: pH 7.5; 30 °C. The procedure:
Values of Ki were determined from the dependence of the observed rate constant (kobs) on inhibitor concentration. […] A range of inhibitor concentrations was employed from at least 5-fold below to 10-fold above the inhibition constant. Nonlinear least-squares fits of the equation for competitive inhibition gave excellent fits in all cases, and the standard error was typically less than 15%.

As to `O=C(O)CSc1nnc2c3ccccc3c3ccccc3c2n1` [2-(1,2,4-triazatriphenylen-3-ylsulfanyl)acetic acid], the Kd is 46.8 µM.
As for `CC(=O)[C@H]1CC[C@@H]2[C@]1(C)CC=C1[C@]23C=C[C@]2(C[C@@H](O)CC[C@]12C)C(C(=O)O)C3C(=O)O` (stereo partly drawn) [(1R,2R,5S,6S,10S,13S,15R)-5-acetyl-13-hydroxy-6,10-dimethylpentacyclo[13.2.2.0^{1,9}.0^{2,6}.0^{10,15}]nonadeca-8,18-diene-16,17-dicarboxylic acid], the figure is 127 µM.
